Data reported in PubChem BioAssay AID194 (DTP/NCI, 2004).
Where “and” joins values, the source holds several entries; their conditions need not be identical. Equal entries are not always repeated. Results filed as inconclusive are left out. The calls were made as follows: active = survival T/C of 150% or more; inactive = T/C below 125% in these data.

Test system: BDF1 mice, B16 melanoma s.c., survival/tumor T/C
Test: NCI In Vivo Anticancer Drug Screen. Data for tumor model B16 Melanoma (subcutaneous) in B6D2F1 (BDF1) mice
Settings: endpoint: median survival time, higher = longer survival
Experimental: The antitumor activity of compounds was measured in mice bearing transplantable tumors. Survival or tumor size were measured and the results are expressed as the measurement made in the treated group (T) divided by the measurement made in the vehicle treated control group (C). The tumor model used in this assay is B16 Melanoma (subcutaneous) in B6D2F1 (BDF1) mice

[1] = dose: 3.0 mg/kg/injection, schedule: Q01DX009 (ip), vehicle: saline
[2] = dose: 20.0 mg/kg/injection, schedule: Q01DX009 (ip), vehicle: Klucel (hydroxypropylcellulose) (HPC)
[3] = dose: 1.0 mg/kg/injection, schedule: Q01DX009 (ip), vehicle: saline

Measured: T/C

O=CC(NC(=O)N(CCCl)N=O)C(O)C(O)C(O)CO (stereo not drawn)
inactive: [1] 115 % of control | dose: 3.3 mg/kg/injection, schedule: Q01DX009 (ip), vehicle: saline 115 % of control | dose: 4.5 mg/kg/injection, schedule: Q01DX009 (ip), vehicle: saline 112 % of control | dose: 4.9 mg/kg/injection, schedule: Q01DX009 (ip), vehicle: saline 102 % of control | dose: 6.8 mg/kg/injection, schedule: Q01DX009 (ip), vehicle: saline 89 % of control | dose: 7.4 mg/kg/injection, schedule: Q01DX009 (ip), vehicle: saline 100 % of control | dose: 10.0 mg/kg/injection, schedule: Q01DX009 (ip), vehicle: saline 122 % of control | dose: 12.0 mg/kg/injection, schedule: Q04DX003 (ip), vehicle: saline 112 % of control | dose: 13.0 mg/kg/injection, schedule: Q01DX001 (ip), vehicle: saline 118 % of control | dose: 16.0 mg/kg/injection, schedule: Q01DX001 (ip), vehicle: saline 112 % of control | dose: 18.0 mg/kg/injection, schedule: Q04DX003 (ip), vehicle: saline 106 % of control | dose: 20.0 mg/kg/injection, schedule: Q01DX001 (ip), vehicle: saline 96 % of control | dose: 24.0 mg/kg/injection, schedule: Q01DX001 (ip), vehicle: saline 102 % of control | dose: 27.0 mg/kg/injection, schedule: Q04DX003 (ip), vehicle: saline 108 % of control | dose: 36.0 mg/kg/injection, schedule: Q01DX001 (ip), vehicle: saline 112 % of control

O=NN(CCF)C(=O)NC1C(O)CCCC1O (stereo not drawn)
inactive: dose: 3.11 mg/kg/injection, schedule: Q01DX007 (ip), vehicle: water 98 % of control | dose: 5.18 mg/kg/injection, schedule: Q01DX007 (ip), vehicle: water 103 % of control | dose: 8.64 mg/kg/injection, schedule: Q01DX007 (ip), vehicle: water 112 % of control | dose: 14.4 mg/kg/injection, schedule: Q01DX007 (ip), vehicle: water 123 % of control

CCOC(=O)CNC(=O)CCCCSc1ncnc2nc[nH]c12
inactive: [2] 121 % of control | dose: 40.0 mg/kg/injection, schedule: Q01DX009 (ip), vehicle: Klucel (hydroxypropylcellulose) (HPC) 111 % of control | dose: 80.0 mg/kg/injection, schedule: Q01DX009 (ip), vehicle: Klucel (hydroxypropylcellulose) (HPC) 119 % of control | dose: 160.0 mg/kg/injection, schedule: Q01DX009 (ip), vehicle: Klucel (hydroxypropylcellulose) (HPC) 115 % of control | dose: 320.0 mg/kg/injection, schedule: Q01DX009 (ip), vehicle: Klucel (hydroxypropylcellulose) (HPC) 118 % of control | dose: 640.0 mg/kg/injection, schedule: Q01DX009 (ip), vehicle: Klucel (hydroxypropylcellulose) (HPC) 122 % of control

CC(=O)O[C@H]1C(=O)[C@@]2(C)[C@H]([C@H](OC(=O)c3ccccc3)[C@]3(O)C[C@H](OC(=O)[C@H](O)[C@@H](NC(=O)c4ccccc4)c4ccccc4)C(C)=C1C3(C)C)[C@]1(OC(C)=O)CO[C@@H]1C[C@@H]2O
inactive: dose: 1.32 mg/kg/injection, schedule: Q01DX009 (ip), vehicle: Klucel (hydroxypropylcellulose) (HPC) 91 % of control | dose: 1.32 mg/kg/injection, schedule: Q01DX009 (ip), vehicle: other 100 % of control | dose: 1.98 mg/kg/injection, schedule: Q01DX009 (ip), vehicle: Klucel (hydroxypropylcellulose) (HPC) 95 % of control | dose: 1.98 mg/kg/injection, schedule: Q01DX009 (ip), vehicle: other 88 % of control | dose: 2.96 mg/kg/injection, schedule: Q01DX009 (ip), vehicle: Klucel (hydroxypropylcellulose) (HPC) 116 % of control | dose: 2.96 mg/kg/injection, schedule: Q01DX009 (ip), vehicle: other 88 % of control | dose: 4.0 mg/kg/injection, schedule: Q01DX009 (ip), vehicle: Klucel (hydroxypropylcellulose) (HPC) 93 % of control | dose: 4.44 mg/kg/injection, schedule: Q01DX009 (ip), vehicle: other 123 % of control | dose: 6.0 mg/kg/injection, schedule: Q01DX009 (ip), vehicle: Klucel (hydroxypropylcellulose) (HPC) 97 % of control | dose: 6.67 mg/kg/injection, schedule: Q01DX009 (ip), vehicle: Klucel (hydroxypropylcellulose) (HPC) 117 % of control | dose: 9.0 mg/kg/injection, schedule: Q01DX009 (ip), vehicle: Klucel (hydroxypropylcellulose) (HPC) 93 % of control | dose: 11.0 mg/kg/injection, schedule: Q04DX003 (ip), vehicle: Klucel (hydroxypropylcellulose) (HPC) 102 % of control | dose: 13.0 mg/kg/injection, schedule: Q01DX001 (ip), vehicle: Klucel (hydroxypropylcellulose) (HPC) 97 % of control | dose: 16.0 mg/kg/injection, schedule: Q04DX003 (ip), vehicle: Klucel (hydroxypropylcellulose) (HPC) 91 % of control | dose: 20.0 mg/kg/injection, schedule: Q01DX001 (ip), vehicle: Klucel (hydroxypropylcellulose) (HPC) 122 % of control | dose: 24.0 mg/kg/injection, schedule: Q04DX003 (ip), vehicle: Klucel (hydroxypropylcellulose) (HPC) 93 % of control | dose: 30.0 mg/kg/injection, schedule: Q01DX001 (ip), vehicle: Klucel (hydroxypropylcellulose) (HPC) 106 % of control

COC(=O)C[C@](O)(CCC(C)(C)O)C(=O)O[C@@H]1C(OC)=C[C@]23CCCN2CCc2cc4c(cc2[C@H]13)OCO4
inactive: dose: 0.7 mg/kg/injection, schedule: Q01DX009 (ip), vehicle: saline 101 % of control | [3] 87 % of control | dose: 1.5 mg/kg/injection, schedule: Q01DX009 (ip), vehicle: saline 91 % of control | dose: 2.3 mg/kg/injection, schedule: Q01DX009 (ip), vehicle: saline 105 % of control

CC[C@]1(O)C[C@H]2CN(CCc3c([nH]c4ccccc34)[C@@](C(=O)OC)(c3cc4c(cc3OC)N(C=O)[C@H]3[C@@](O)(C(=O)OC)[C@H](OC(C)=O)[C@]5(CC)C=CCN6CC[C@]43[C@@H]65)C2)C1
inactive: dose: 0.06 mg/kg/injection, schedule: Q01DX009 (ip), vehicle: saline 100 % of control and 115 % of control | dose: 0.12 mg/kg/injection, schedule: Q01DX009 (ip), vehicle: saline 104 % of control and 121 % of control | dose: 0.13 mg/kg/injection, schedule: Q01DX009 (ip), vehicle: saline 100 % of control | dose: 0.7 mg/kg/injection, schedule: Q04DX003 (ip), vehicle: saline 93 % of control | dose: 1.0 mg/kg/injection, schedule: Q04DX003 (ip), vehicle: saline 100 % of control | dose: 1.5 mg/kg/injection, schedule: Q04DX003 (ip), vehicle: saline 113 % of control

N/C(=N\Cl)C(Cl)(Cl)Cl
inactive: dose: 6.25 mg/kg/injection, schedule: Q01DX009 (ip), vehicle: saline with Tween-80 102 % of control | dose: 12.5 mg/kg/injection, schedule: Q01DX009 (ip), vehicle: saline with Tween-80 98 % of control | dose: 50.0 mg/kg/injection, schedule: Q01DX009 (ip), vehicle: saline with Tween-80 94 % of control

Nc1nc([Se])c2ncn(C3OC(CO)C(O)C3O)c2n1 (stereo not drawn)
inactive: [3] 108 % of control | dose: 2.0 mg/kg/injection, schedule: Q01DX009 (ip), vehicle: saline 98 % of control and 121 % of control | dose: 4.0 mg/kg/injection, schedule: Q01DX009 (ip), vehicle: saline 121 % of control | dose: 8.0 mg/kg/injection, schedule: Q01DX009 (ip), vehicle: saline 108 % of control | dose: 16.0 mg/kg/injection, schedule: Q01DX009 (ip), vehicle: saline 111 % of control

Cc1c[n+]2c3ccccc3c3ccccc3c2s1
inactive: [2] 121 % of control

CC1=CCC(C(C)C)C=C1 (stereo not drawn)
inactive: dose: 25.0 mg/kg/injection, schedule: Q01DX009 (ip), vehicle: Klucel (hydroxypropylcellulose) (HPC) 121 % of control | dose: 50.0 mg/kg/injection, schedule: Q01DX009 (ip), vehicle: Klucel (hydroxypropylcellulose) (HPC) 117 % of control | dose: 100.0 mg/kg/injection, schedule: Q01DX009 (ip), vehicle: Klucel (hydroxypropylcellulose) (HPC) 89 % of control and 100 % of control | dose: 200.0 mg/kg/injection, schedule: Q01DX009 (ip), vehicle: Klucel (hydroxypropylcellulose) (HPC) 98 % of control and 108 % of control

CCCCC[C@H](O)/C=C/[C@H]1[C@H](O)CC(=O)[C@@H]1C/C=C\CCCC(=O)O
inactive: dose: 0.75 mg/kg/injection, schedule: Q04DX002 (ip), vehicle: Klucel (hydroxypropylcellulose) (HPC) 98 % of control | dose: 3.0 mg/kg/injection, schedule: Q04DX002 (ip), vehicle: Klucel (hydroxypropylcellulose) (HPC) 118 % of control | dose: 6.0 mg/kg/injection, schedule: Q04DX002 (ip), vehicle: Klucel (hydroxypropylcellulose) (HPC) 122 % of control | dose: 12.5 mg/kg/injection, schedule: Q04DX002 (ip), vehicle: saline with Tween-80 87 % of control

NC(=O)c1ccc[n+](Cc2c(Cl)cccc2Cl)c1
inactive: dose: 0.75 mg/kg/injection, schedule: Q01DX009 (ip), vehicle: saline 106 % of control | [1] 98 % of control | dose: 6.0 mg/kg/injection, schedule: Q01DX009 (ip), vehicle: saline 102 % of control and 117 % of control | dose: 12.0 mg/kg/injection, schedule: Q01DX009 (ip), vehicle: saline 106 % of control and 114 % of control
